The values below come from article PMC12796447, “Cran1, member of a new class of OLD family ATPases, functions in cell cycle progression in an archaeon” (EMBO Reports, 2025).

SMILES strings stand for the structures.

In the experiment the target is T1, Cran1 (Cell cycle-related ATPase and nickase 1) (Saccharolobus islandicus, UniProt F0NG35, E246A).
T1 construct: gene SiRe_0086; full-length, C-terminal His-tag; expressed in Sa. islandicus (ATPase assay) or E. coli BL21(DE3)-RIL; monomer, 55 kDa by gel filtration
T1 sequence (F0NG35 entry or part of it E246A): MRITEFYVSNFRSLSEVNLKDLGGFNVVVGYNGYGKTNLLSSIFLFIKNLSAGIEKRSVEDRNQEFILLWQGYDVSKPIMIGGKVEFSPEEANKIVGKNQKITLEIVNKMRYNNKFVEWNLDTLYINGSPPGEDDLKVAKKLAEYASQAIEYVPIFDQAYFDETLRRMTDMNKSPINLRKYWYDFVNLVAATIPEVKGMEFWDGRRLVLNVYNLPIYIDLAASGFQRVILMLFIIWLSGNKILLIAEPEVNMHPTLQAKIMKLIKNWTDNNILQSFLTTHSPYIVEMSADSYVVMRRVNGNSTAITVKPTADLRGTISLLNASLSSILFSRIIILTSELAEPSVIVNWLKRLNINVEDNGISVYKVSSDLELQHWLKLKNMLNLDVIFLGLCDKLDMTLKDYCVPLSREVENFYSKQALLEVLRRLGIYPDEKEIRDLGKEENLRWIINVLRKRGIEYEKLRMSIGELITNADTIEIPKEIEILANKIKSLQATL
In words: malachite green phosphate release assay. The experiment is classed as biochemical. To be noted: 1 mM ATP, 0.2 uM protein, 5 mM MgCl2, 25 mM Tris-HCl pH 7.4, 100 mM NaCl; 70 C.

Turning to `Nc1ncnc2c1ncn2[C@@H]1O[C@H](COP(=O)(O)OP(=O)(O)OP(=O)(O)O)[C@@H](O)[C@H]1O` [ATP], the “malachite green phosphate release assay” value is “substitution of either of the two residues with alanine had no effect both in vitro”.
